According to patent US11339502B2, “Combinatorial derivatives of oligopeptides having antiviral properties” (priority 2017, dated 2022):

Assays:
Assay type in all cases: cell-based
[1] = test system: vesicular stomatitis virus (reference strain)
[2] = test system: herpes simplex virus type 1 (strain L-2)
H1N1 influenza virus = test system: H1N1 influenza virus

KKRKRKRKR [derivative 54]
0%: % cytoprotective antiviral activity, Vesic [1] | % cytoprotective antiviral activity, Herp [2] | % cytoprotective antiviral activity, Inf (H1N1 influenza virus)
